From ChEMBL document CHEMBL2311517, “Novel route to chaetomellic acid A and analogues: serendipitous discovery of a more competent FTase inhibitor” (Bioorg Med Chem, 2013) come the findings set out here.

Where a SMILES comes first, the peptide text is derived from it. The star is where a group is joined. Dansyl = CN(C)c1cccc2c(S(=O)(=O)*)cccc12

The species named for experiment [1] is Rattus norvegicus. The experiment can be described thus: Activity of rat farnesyltransferase.
The species entered for experiment [2] is Rattus norvegicus. The experiment in a line: Ratio of […] to Km for rat farnesyltransferase.
The nature of experiment [3]: Inhibition of rat farnesyltransferase using dansyl-GCVIA as substrate preincubated for 5 mins measured over 300 secs by continuous fluorescence assay.
A short description of experiment [4]: Inhibition of yeast farnesyltransferase using dansyl-GCVIA as substrate preincubated for 5 mins measured over 300 secs by continuous fluorescence assay. Set-up: species or system Saccharomyces cerevisiae.

Regarding `CC(C)C[C@H](NC(=O)[C@@H](NC(=O)[C@H](CS)NC(=O)CNS(=O)(=O)c1cccc2c(N(C)C)cccc12)C(C)C)C(=O)N[C@@H](CO)C(=O)O` (Dansyl-GCVLS-OH), the kcat in the experiment listed under Rattus norvegicus [1] was 0.4 s⁻¹. The kcat/Km in the experiment listed under Rattus norvegicus [2] amounted to 170000 M⁻¹ s⁻¹.

As to `CCCCSCCCCCCCCC/C(C(=O)O)=C(\C)C(=O)O`, the IC50 in experiment [3] came to 0.19 µM; in experiment [4], 3.5 µM.

Consider `CC[C@H](C)[C@H](NC(=O)[C@@H](NC(=O)[C@H](CS)NC(=O)CNS(=O)(=O)c1cccc2c(N(C)C)cccc12)C(C)C)C(=O)N[C@@H](C)C(=O)O` (Dansyl-GCVIA-OH), for which, in the experiment filed under Rattus norvegicus [1], the kcat is above 0.2 s⁻¹. Besides, in the experiment filed under Rattus norvegicus [2], the kcat/Km amounted to 120000 M⁻¹ s⁻¹.

On to `C=CCCCCCCC/C(C(=O)O)=C(\C)C(=O)O`, for which the IC50 in experiment [3] came out at 0.49 µM; in experiment [4] it was 13.4 µM.

`CC(C)=CCC/C(C)=C/CC/C(C)=C/C/C(C(=O)O)=C(\C)C(=O)O` returned an IC50 in experiment [4] of 2.4 µM.

Consider `CCCCCCCCCCCC/C(C(=O)O)=C(\C)C(=O)O` [CHAETOMELLIC ACID C], for which the IC50 in experiment [4] worked out at 4 µM.

Turning to `CCCCCCCCCCCCCCCC/C(C(=O)O)=C(\C)C(=O)O`, the values for the IC50 in experiment [3] and in experiment [4] were 2.6 µM and 65.6 µM, respectively.

Take `CCCCCCCCCCCCCC/C(C(=O)O)=C(\C)C(=O)O`: the figures for the IC50 in experiment [3] and in experiment [4] were 0.91 µM and 16 µM, respectively.
